Read-outs that look alike come from different tables or passages of the source.

In data set [1] the test system is MKN45 human gastric cancer xenograft.
For data set [2] the following is noted: SN-38 formed from CPT-11; evident from high SN-38G/SN-38; cited from earlier work.
The test system of data set [3] is HT-29 human colon cancer xenograft. Description: HT-29 human colon cancer xenograft, antitumor activity and tolerability. The data set is classed as in vivo, nude rat.
Data set [4] has as its system HCT116 human colon cancer xenograft.
Data set [5] concerns NCI-N87 human gastric cancer xenograft.
Data set [6] relates to Panc-1 human pancreatic cancer xenograft.
The subject of data set [7] is H460 human lung cancer xenograft.
In data set [8] the test system is H446 human small cell lung cancer xenograft.
For data set [9] the following is noted: pegamotecan; cited from earlier work.
For data set [10] the following is noted: in vivo, po.
Setting [11] is: PLX038 200 mg/kg, irinotecan 60 mg/kg, IV once a week for 2 weeks.
Where [12] appears, read: irinotecan 60 mg/kg IV once a week for 2 weeks.
[13] abbreviates: PLX038 200 mg/kg IV once a week for 2 weeks.
The mark [14] stands for this setting: PLX038 IV 200 mg/kg once a week for 2 weeks.
The mark [15] stands for this setting: cisplatin IP 5 mg/kg once a week for 2 weeks.

As for `CCc1c2c(nc3ccc(OC(=O)N4CCC(N5CCCCC5)CC4)cc13)-c1cc3c(c(=O)n1C2)COC(=O)[C@]3(O)CC` [irinotecan], the tolerability result is “well-tolerated” in data set [1] (setting [11]), “well tolerated” in data set [4] (setting [11]) and “well-tolerated” in [5] (setting [11]). In addition, the results for the TGI in data set [1] (setting [12]), in data set [4] (setting [12]) and in data set [5] (setting [12]) were 45.6%, 65.4% and 57.8%, respectively. Also, the “liver/GI exposure of SN-38” value in data set [2] is on record as “high”. Further, the “tumor growth inhibition (TGI)” value in [3] (irinotecan 70/50 mg/kg IV once a week for 2 weeks) came to 45%. Also, the “loss in body weight” value in data set [3] (irinotecan at 70 mg/kg IV (second dose lowered to 50 mg/kg)) was found to be 16%.

For the compound `Nc1ccn([C@@H]2O[C@H](CO)[C@@H](O)C2(F)F)c(=O)n1` [gemcitabine], in [6] (gemcitabine IP 50 mg/kg once a week for 2 weeks), the TGI (in general, the reduction of tumour growth relative to the control group) turned out to be 32.5%.

Take “O-[7-(tetra-polyethylene glycol ether)-carboxamido-1-cyano-2-heptyl]-N-(10′-methoxy-7′-ethyl-camptothecin)-N-[4′-(diethylcarbamoyl)phenyl)] carbamate [PLX038]”: the TGI in data set [1] (setting [13]) is given as 59.0%; in [7] (setting [14]), 30%; in data set [8] (setting [14]), 41.0%; in data set [6] (setting [14]), 73.1%; in data set [4] (setting [13]) it was 46.6%; in [5] (setting [13]), 34.4%. Moreover, the results for the “tumor growth inhibition (TGI)” value in [3] (PLX038 50 mg/kg IV once a week for 2 weeks), in [3] (PLX038 100 mg/kg IV once a week for 2 weeks) and in [3] (setting [13]) were 13%, 35% and 61%, respectively.

As to pegamotecan, the “maximum tolerated dose (MTD)” value in data set [9] is reported as 3.24 g/m^2.

For `CNCc1ccc(-c2[nH]c3cc(F)cc4c3c2CCNC4=O)cc1` [rucaparib], in [10], the “rucaparib pre-dose (trough) concentrations at steady state” value was “reasonably consistent with prior data”.

Turning to `N.N.[Cl][Pt][Cl]` [cisplatin], the TGI worked out at 33% in [7] (setting [15]) and 36.1% in [8] (setting [15]).
